How the values were obtained:
Assay type in all cases: cell-based
[1] = test system: wild type (AMPK+/+) mouse embryonic fibroblasts; assay: Circadian reverbα and dbp expression by quantitative PCR in serum-stimulated wild type fibroblasts; conditions: 25 mM glucose supplemented with 1 mM AICAR, after 2 hour 50% horse serum, compared with 0.5 mM glucose
Description: (§1) (A) Unsynchronized paired wild type (AMPK^+/+) or ampkα1^−/−; ampkα2^−/− (AMPK−/−) mouse embryonic fibroblasts were stimulated by 2 hour exposure to 50% horse serum followed by transfer to media containing 25 mM glucose, 0.5 mM glucose or 25 mM glucose supplemented with 1 mM AICAR. Quantitative PCR analysis was performed using cDNA samples collected at the indicated times following stimulation. Data represent the mean of two independent experiments, each analyzed in triplicate. (B) Fibroblasts stably expressing Bmal1-luciferase were cultured in media containing the indicated amounts of glucose with or without 2 mM AICAR. Typical results of continuous monitoring of luciferase activity are shown. (C and D) Quantitation of the circadian period (C) and amplitude (D) of Bmal1-driven luciferase activity from experiments performed as described in (B). Data in (C) and (D) represent the mean±standard deviation for four samples per condition. […]
(§2) FIG. 4A-B show disruption of AMPK alters circadian rhythms in MEFs. […] Quantitative PCR analysis was performed using cDNA samples prepared from lysates collected at the indicated times following stimulation. Data represent the mean±standard deviation of two or three independent experiments each analyzed in triplicate. […]

[2] = test system: ampkα1−/−; ampkα2−/− (AMPK−/−) mouse embryonic fibroblasts; assay: Circadian reverbα and dbp expression by quantitative PCR in serum-stimulated MEFs lacking AMPK; conditions: 25 mM glucose supplemented with 1 mM AICAR
Description: as §1, §2

[3] = test system: Fibroblasts stably expressing Bmal1-luciferase; assay: Continuous monitoring of Bmal1-driven luciferase activity in fibroblasts; conditions: media with 2 mM AICAR vs 25 mM glucose
Description: (A) Unsynchronized paired wild type (AMPK^+/+) or ampkα1^−/−; ampkα2^−/− (AMPK−/−) mouse embryonic fibroblasts were stimulated by 2 hour exposure to 50% horse serum followed by transfer to media containing 25 mM glucose, 0.5 mM glucose or 25 mM glucose supplemented with 1 mM AICAR. Quantitative PCR analysis was performed using cDNA samples collected at the indicated times following stimulation. Data represent the mean of two independent experiments, each analyzed in triplicate. (B) Fibroblasts stably expressing Bmal1-luciferase were cultured in media containing the indicated amounts of glucose with or without 2 mM AICAR. Typical results of continuous monitoring of luciferase activity are shown. (C and D) Quantitation of the circadian period (C) and amplitude (D) of Bmal1-driven luciferase activity from experiments performed as described in (B). Data in (C) and (D) represent the mean±standard deviation for four samples per condition. ANOVA analysis indicated a significant difference between categories. ** P<0.01 vs. samples cultured in 25 mM glucose in Scheffe's post-hoc analysis.
The Bmal1 promoter is repressed by REVERBα. Therefore, the effects of reducing glucose availability on circadian rhythms was examined using fibroblasts stably expressing luciferase under the control of a Bmal1 promoter. […]

NC(=O)c1ncn([C@@H]2O[C@H](CO)[C@@H](O)[C@H]2O)c1N [AICAR, 5-amino-4-imidazolecarboxamide riboside]
amplitude of circadian reverbα and dbp expression [1]: mimicked the effects of glucose deprivation
expression of reverbα and dbp [2]: neither glucose deprivation nor AICAR treatment affected the expression of reverbα and dbp
amplitude of Bmal1-luciferase expression [3]: decreased the amplitude of Bmal1-luciferase expression

Reference: patent US20120264796A1, “METHODS FOR MODULATING CIRCADIAN RHYTHMS” (THE SALK INSTITUTE FOR BIOLOGICAL STUDIES, priority 2009, published 2012)
